pIC50: −log10 of the molar value.

The assay can be described thus: Inhibitory concentration for heterotrimeric G protein, transducer.
By pIC50 is commonly meant −log10 of the IC50, conventionally taken in molar units. Higher therefore signals a low IC50. `CCC(=O)O[C@H]1[C@@H](O)[C@H](n2cnc3c(O)nc(N)nc32)O[C@@H]1COP(=O)(O)NP(=O)(O)O` showed a pIC50 of 3.30.

Take `NCCOCCOc1nc(N)nc2c1ncn2C1O[C@H](COP(=O)(O)NP(=O)(O)O)[C@@H](O)[C@H]1O` (stereo partly drawn): the pIC50 is less than 3.00.

Compound `Nc1nc(O)c2ncn(C3O[C@H](COP(=O)(O)NP(=O)(O)O)[C@@H](O)[C@H]3O)c2n1` (stereo partly drawn) had a pIC50 of 4.92.

On to `NCCOCCOCCn1c(N)nc2c(ncn2C2O[C@H](COP(=O)(O)NP(=O)(O)O)[C@@H](O)[C@H]2O)c1=O` (stereo partly drawn), for which the pIC50 is less than 3.00.

The compound `Nc1nc2c(ncn2[C@@H]2O[C@H](COC(=O)CP(=O)(O)O)C(O)C2O)c(=O)[nH]1` (single isomer, unassigned) gave a pIC50 of less than 3.00.

The compound `Nc1nc(O)c2ncn(C3O[C@H](COP(=O)(O)CC(=O)O)C(O)C3O)c2n1` (single isomer, unassigned) gave a negative logarithm of the IC50 (pIC50) of less than 3.00.

The compound `Nc1nc(O)c2ncn(C3O[C@H](COC(=O)CC(=O)O)C(O)C3O)c2n1` (single isomer, unassigned) had a pIC50 of less than 3.00.

In turn, `Nc1nc2c(ncn2[C@@H]2O[C@H](COP(=O)(O)CP(=O)(O)O)C(O)C2O)c(=O)[nH]1` (single isomer, unassigned) [PHOSPHOMETHYLPHOSPHONIC ACID GUANOSYL ESTER] showed a pIC50 of less than 3.00.

Values taken from ChEMBL document CHEMBL1134257, “Probing the transducin nucleotide binding site with GDP analogues” (Bioorg Med Chem Lett, 2001).
